Reference: patent publication US20070197560A1, “cGMP PDE 5 inhibitors for inhalation in the treatment of sexual dysfunction” (priority 1998, published 2007)

Columns and labels:
in vivo = details: male, Wistar:Han, rat, inhaled or intranasal, 2.1 umol/kg
Experimental: (§1) A calculated nominal dose of 8.4 μmol/kg is administered to each of 3 male Wistar:Han rats by administration directly into the trachea via the mouth and vocal chords from a Penn-Century dry powder delivery device actuated via a 2 ml syringe containing air as a propellent.
(§2) A calculated nominal dose of 2.1 μmol/kg is administered to each of 4 male Wistar:Han rats by administration directly into the trachea via the mouth and vocal chords from a Penn-Century dry powder delivery device actuated via a 2 ml syringe containing air as a propellent.
(§3) Each of 3 animals receives a dose equivalent to 2.1 μmol/kg.

[1] = rodent pharmacokinetic model simulating inhalation: intratracheal dry powder blend with lactose; details: rat
Experimental: as §1, §2, §3

[2] = set-up: species or system Male Wistar:Han rats; details: rat, in vivo, inhaled or intranasal, 2.1 umol/kg, pH 6
Experimental: Male Wistar:Han rats used for this model are supplied by Harlan UK Ltd at 105 days of age and approximately 350 g weight. They are fed ad libitum with a standard laboratory diet and housed under controlled conditions (12 hours light/dark cycle; 20° C.) for at least one week prior to the experiment.
Compound A is dissolved, at a concentration of 1.75 mg/ml in 0.9% saline which has been acidified with 1M aqueous HCI (5 μl), giving a clear solution of pH 5.0. To the solution is added 1M aqueous NaOH (2μl) to increase the pH to 6.0, resulting in a very fine suspension. […] Each animal receives a 2.1 μmol/kg dose in 200 μl of suspension.
The following surgical procedure is used to prepare the animals for the experiment: the animals are anaesthetised, initially with 4% halothane, maintained with 2% halothane, both in a 1:1 oxygen: nitrous oxide mixture carrier. The anaesthetised animals are shaved on their ventral neck and craniodorsal back, then swabbed with a solution of 5% Hibitane in a 70% solution of ethanol in water. […] The patency of the cannula is assessed immediately before experimentation. […]
Withdrawn blood samples are analysed as follows: […]

SMILES: CCOc1cnccc1-c1nc2n(C3CCCC3)[nH]c(CC)c-2c(=O)n1 [Compound C, 1-cyclopentyl-3-ethyl-6-(3-ethoxy-4-pyridyl)-pyrazolo[3,4-d]pyrimidin-4-one]
- Tmax (in vivo): 2 to 20 min

SMILES: CCCOc1ccc(NS(C)(=O)=O)cc1-c1nc2c(c(C)nn2C)c(=O)[nH]1 [Compound D, 1,3-dimethyl-6-(2-propoxy-5-methanesulfonylamidophenyl)-1,5-dihydropyrazolo[3,4-d]pyrimidin-4-one]
- absorption time T max ([1]; 6% blend with lactose, 2.1 μmol/kg): 10 min

SMILES: CCCc1nn(C)c2c(=O)[nH]c(-c3cc(S(=O)(=O)N4CCN(C)CC4)ccc3OCC)nc12 [Compound A, 5-[2-ethoxy-5-(4-methylpiperazinylsulfonyl)phenyl]-1-methyl-3-n-propyl-1,6-dihydro-7H-pyrazolo[4,3-d]pyrimidin-7-one]
- Tmax (absorption time; time to maximum concentration in plasma) [2]: 5 min
- time to peak plasma concentration (absorption time Tmax) ([1]; citrate salt micronised to less than 5 μM, diluted by weight to 40% in lactose, nominal dose 8.4 μmol/kg, 3 rats): 2 min
